Reference: patent US20140288077A1, “SUBSTITUTED 4-PHENOXYPHENOL ANALOGS AS MODULATORS OF PROLIFERATING CELL NUCLEAR ANTIGEN ACTIVITY” (ST. JUDE CHILDREN'S RESEARCH HOSPITAL, priority 2011, published 2014)
Several values for one entry are separate records, joined by “and”; a condition that tells them apart may be missing. Equal values may be shown once.

Tests used:
Polδ3 = assay: Immunoblotting for Polδ3 in whole cell lysates; assay type: cell-based; details: U2OS cells, FIG. 24B
Protocol: The cells treated as indicated were washed twice with ice-cold PBS, collected in a spin tube, and lysed with radioimmune precipitation assay buffer supplemented with Halt protease inhibitor mixture and Halt phosphatase inhibitor mixture (Thermo Scientific) using approximately twice the volume of the cell pellet on ice for 0.5 h. Protein concentration was determined by a BCA assay (Thermo Scientific) according to the manufacturer's recommendation. Normalized amounts of samples were loaded on SDS-PAGE as indicated and electrotransferred to a PVDF membrane. The membrane was blocked with SuperBlock buffer (Thermo Scientific) and incubated with the indicated primary antibodies in SuperBlock at 4° C. overnight, rinsed with TBS, 0.05% Tween 20 three times for 10 min, incubated with the corresponding secondary IgG-HRP conjugate in SuperBlock at room temperature for 1 h, and rinsed with TBS, 0.05% Tween 20 for 15 min. Proteins probed on the membrane were visualized by chemiluminescence using WestPico reagent (Thermo Scientific) and developed on BioMax MR film (Eastman Kodak Co.).

U2OS cells [1] = assay: DNA replication assay (BrdU incorporation); assay type: cell-based; details: titration of compound, 24 h, FIG. 25A-C
Protocol: DNA replication in U2OS and/or HeLa cells were analyzed by the rates of bromodeoxyuridine (BrdU) incorporation by a method reported previously (Taddei, A., et al. (1999) J. Cell Biol. 147, 1153-1166.). For immunofluorescence, cells were propagated at a subconfluent density onto a coverslip in a 6-well culture plate the day before the assay. […] During the last 15 min in the incubation period, BrdU was added at a concentration of 10 μM. Cells were washed with PBS and fixed with 4% paraformaldehyde in PBS for 15 min at room temperature. After permeabilization with 0.2% Triton X-100 in PBS for 15 min, cells were treated with 4N hydrochloric acid for 10 min and extensively rinsed with PBS. After blocking cells with 3% FBS in PBS for 20 min, anti-BrdU monoclonal antibody (1 μg/ml; clone 44, BD Pharmingen) was added to the cells and incubated at room temperature for 1 h. Cells were rinsed with PBS three times for 5 min each. Antimouse IgG conjugated with Alexa Fluor 555 (Invitrogen) was added and incubated at room temperature for 30 min. […] Fluorescence microscopy was done on an E800 microscope (Nikon) with a DXM1120 digital camera (Nikon). […] For quantitative analyses, BrdU incorporation was measured with the APC BrdU Flow Kit (BD Pharmingen) following the manufacturer's instructions. […] The populations of BrdU-positive cells (a) and mean BrdU intensity in S-phase cells (b) were recorded. […]

cells [2] = assay: Cell cycle analysis by flow cytometry (PI); assay type: cell-based; details: 20 μM, 24 h, FIG. 25E
XP2OS(SV40) cells = assay: TLS assay in mammalian cultured cells with cisplatin-cross-linked Pt-GTG plasmid; assay type: cell-based; details: 5 μM of T2AA
Protocol: The cisplatin-modified plasmid was constructed, and the TLS assay was performed as previously described (14) with some modifications. Briefly, two oligonucleotides, [NT] and [NT], were annealed and inserted between the sites of EcoRV and EcoRI in pUCS[…]. The resultant plasmid was designated as pUCS[…]+ BglII. […] This oligonucleotide has the cross-link at the underlined site of [NT]. An unmodified 13-mer oligonucleotide was used for the construction of control plasmid. These oligonucleotides were purified with HPLC and PAGE. […] The gapped duplex plasmid was incubated with a 2-fold molar excess of the purified 13-mer oligonucleotide, which is complementary to the gap sequence except for a bulge in the middle in the presence of ATP (1 mM) and T4 DNA ligase (New England Biolabs, Ipswich, MA) at 16° C. for 6 min. The covalently closed circle plasmid was purified with equilibrium centrifugation on a CsCl gradient. The plasmids with and without the cisplatin adduct are hereafter referred to as Pt-GTG and Mock-GTG, respectively. […] The plasmids were extracted from the cells by using the QIAprep spin miniprep kit (Qiagen), digested with the restriction endonuclease DpnI (New England Biolabs) to remove the unreplicated plasmids, and introduced into Escherichia coli strain DH5α. The E. coli was plated onto LB agar plates containing ampicillin, X-gal, and isopropyl-β-D-thioga-lactopyranoside. […] Therefore, TLS frequency (%) was defined as (number of blue colonies/number of total colonies)×100.

U2OS cells [3] = assay: Growth of cells after treatment with cisplatin and T2AA and release (Alamar Blue); details: 18 h, then 3 days drug-free, FIG. 28B
Protocol: The cells were treated with drugs as indicated in a black (transparent flat bottom) 384-well or 96-well plate. Cellular viability was determined by using Alamar Blue reagent (Invitrogen) on an EnVision plate reader according to the manufacturer's recommendations and normalized with signal from wells of DMSO treatment=100% and of no cells=0%.
Viability of the cells was measured by Alamar Blue reagent, and signals were normalized with those of no cell well (0%) and cells with no drugs (100%). NT, no treatment. Error bars, S.D.

cells [4] = assay: Apoptosis analysis by flow cytometry (Annexin-V and PI); assay type: cell-based; parameters: dose or concentration left out as unconfirmed; details: 5 days, FIG. 25G
HeLa cells = assay: Immunostaining of phospho-Chk1 and γH2AX (DNA replication stress); assay type: cell-based; details: 4 h, FIG. 26A
U2OS cells [5] = assay: Chromatin immunostaining of phospho(Ser33)RPA32; assay type: cell-based; details: 40 μM, 24 h, FIG. 26B
Protocol: The cells were fixed with 4% paraformaldehyde in PBS for 20 min at room temperature, rinsed three times with PBS for 5 min each, permeabilized with ice-cold methanol for 10 min at −20° C., and rinsed once with PBS for 5 min. The specimens were blocked with PBS containing 5% FBS and 0.03% Triton X-100 for 60 min, applied anti-PCNA antibody (1:3200) and anti-Polδ3 antibody (2.9 μg/ml) or anti-phospho(Ser^33)RPA32 antibody (4.0 μg/ml) in antibody buffer (PBS containing 1% FBS and 0.03% Triton X-100), incubated overnight in a humid chamber at 4° C., and rinsed with PBS three times for 5 min each at room temperature. The specimens were incubated with Alexa Fluor 555-conjugated goat anti-mouse IgG (Invitrogen) antibody (1:500) in the antibody buffer for 2 h in a humidified chamber at room temperature the dark, rinsed once with PBS for 5 min, incubated with Alexa Fluor 488-conjugated goat anti-rabbit IgG (Invitrogen) antibody (1:500) in the antibody buffer for 2 h in a humidified chamber at room temperature in the dark, and rinsed three times with PBS for 5 min. The coverslips were mounted VectaShield containing DAPI at 1 μg/ml (Vector Laboratories). Immunofluorescence imaging for chromatin was performed on a ClSi microscope (Nikon) with a Cascade 512B photomultiplier (Photometrics). Images were processed using EZC1 (Nikon) and Photoshop (Adobe) software. […]

U2OS cells [6] = assay: γH2AX staining by flow cytometry, T2AA and cisplatin; details: 18 h, FIG. 28A
Protocol: For γH2AX staining, cells were cultured at 4×10^5 cells/well of 12-well plates in 1 ml of medium, treated with drugs as indicated, trypsin-lifted and stained by using the FlowCellect H2A.X DNA Damage kit (FCCH025142, Millipore) according to the manufacturer's recommendations. All samples were filtered through 40-μm nylon mesh prior to running flow cytometry.
NT, no treatment. Error bars, S.D.

What does the source list for `N[C@H](CO)Cc1cc(I)c(Oc2ccc(O)cc2)c(I)c1` [Compound T2AA]?
expression of Polδ3 protein in whole cell lysate (Polδ3): not reduced; BrdU incorporation (U2OS cells [1]): inhibited the BrdU incorporation significantly in a dose-dependent manner; cell cycle (cells [2]): arrested cells at S-phase; Mock GTG plasmid Raito (%) blue/total, Total/Average (XP2OS(SV40) cells): 36.9 (100) %; Pt-GTG plasmid Raito (%) blue/total, Total/Average (XP2OS(SV40) cells): 5.3 (14.2) %; Mock GTG plasmid Raito (%) blue/total (XP2OS(SV40) cells; single experiments): 36.0% and 34.5% and 41.0% and 37.9% and 38.1% and 34.2%; reduction of U2OS cell growth (U2OS cells [3]; 10 μM T2AA alone): less than 10%; U2OS cell growth (U2OS cells [3]; cisplatin and T2AA together): significantly reduced; apoptosis (Annexin-V / PI) (cells [4]): increased cellular populations in early apoptosis but not necrosis; phosphorylation of Chk1 and H2AX (HeLa cells): phosphorylated; immunofluorescence of phospho-RPA32 in nuclei (U2OS cells [5]): increased; γH2AX level (DNA damage response) (U2OS cells [6]; T2AA and cisplatin together): further increased much higher than the level combined from each single treatment; γH2AX level (DNA damage response) (U2OS cells [6]; single agent): induced γH2AX only a little
